Measured values as given in EPA's ToxRefDB 2.

Experiments:
[1] = tested on: rat; conditions: Sub-acute repeat dose toxicity; sprague dawley; Oral; Gavage/Intubation; dose end: 1 month; group: systemic; systemic / clinical chemistry / cholesterol / cholesterol + systemic / clinical chemistry / globulins / globulins + systemic / hematology / …
[2] = tested on: rat; conditions: Prenatal developmental toxicity study; sprague dawley; Oral; Gavage/Intubation; dose end: 17 GD; group: maternal; reproductive / reproductive performance / estrous cycle / corpora lutea + reproductive / reproductive performance / postimplantation loss / …
[3] = tested on: rabbit; conditions: Prenatal developmental toxicity study, new zealand white, Oral, Gavage/Intubation, dose end: 19 GD
[4] = tested on: rabbit; conditions: Prenatal developmental toxicity study, new zealand white, Oral, Gavage/Intubation, dose end: 19 GD; remark: listed apart in the source
[5] = tested on: rat; conditions: Developmental neurotoxicity study; fischer; Injection; Intraperitoneal; dose end: 30 PND; group: cannot be grouped; systemic / in life observation / body weight / offspring (pup) weight
[6] = tested on: rat; conditions: Prenatal developmental toxicity study, sprague dawley, Oral, Gavage/Intubation, dose end: 15 GD
[7] = tested on: mouse; conditions: Subchronic oral toxicity in rodents, cd1, Feed, dose end: 13 week, group: systemic
[8] = tested on: dog; conditions: Subchronic oral toxicity in nonrodent, beagle, Capsule, dose end: 13 week, group: systemic
[9] = tested on: rat; conditions: Subchronic oral toxicity in rodents, sprague dawley, Feed, dose end: 13 week, group: systemic
[10] = tested on: mouse; conditions: Carcinogenicity, cd1, Oral, Feed, dose end: 78 week, group: systemic
[11] = tested on: dog; conditions: Chronic toxicity; beagle; Oral; Capsule; dose end: 52 week; group: systemic; systemic / in life observation / clinical signs / excitation + systemic / in life observation / clinical signs / hypersensitivity + systemic…
[12] = tested on: rat; conditions: Combined chronic toxicity/carcinogenicity, sprague dawley, Oral, Feed, dose end: 2 year, group: systemic
[13] = tested on: mouse; conditions: Subchronic oral toxicity in rodents, other, Feed, dose end: 90 day, group: systemic, systemic / in life observation / clinical signs / aggressive behavior + systemic / in life observation / clinical signs / irritability + …
[14] = group: developmental, developmental / developmental malformation / bone / domed head + developmental / developmental malformation / bone / fused + developmental…
[15] = group: maternal, systemic / in life observation / body weight / body weight gain + systemic / in life observation / clinical signs / defecation + systemic / …
[16] = group: developmental, developmental / developmental malformation / bone / domed head + developmental / developmental malformation / brain / hydrocephaly + …
[17] = group: maternal, systemic / in life observation / clinical signs / discharge on cageboard + systemic / in life observation / food consumption / food …
[18] = group: developmental, developmental / developmental malformation / bone / incomplete ossification + systemic / in life observation / body weight / fetal weight
[19] = group: maternal, systemic / in life observation / body weight / body weight gain + systemic / in life observation / food consumption / food consumption + …
[20] = systemic / pathology microscopic / liver / hypertrophy + systemic / pathology microscopic / liver / vacuolization cytoplasmic
[21] = systemic / in life observation / body weight / body weight gain + systemic / in life observation / clinical signs / anorexia
[22] = systemic / in life observation / body weight / body weight gain + systemic / in life observation / clinical signs / anorexia + systemic / in…
[23] = systemic / clinical chemistry / urea nitrogen / urea nitrogen + systemic / clinical chemistry / aspartate aminotransferase (ast/sgot) / …
[24] = systemic / organ weight / liver / relative to body weight + systemic / pathology microscopic / liver / vacuolization + systemic / in life …
[25] = systemic / clinical chemistry / albumin / albumin + systemic / clinical chemistry / albumin-globulin ratio / albumin-globulin ratio + …
[26] = systemic / organ weight / brain / relative to body weight + systemic / organ weight / spleen / absolute + systemic / organ weight / thyroid …

CC(=O)NC1(c2cccc(F)c2)CCN(CC[C@@]2(c3ccc(Cl)c(Cl)c3)CN(c3ccccc3)C(=O)CO2)CC1.O=C(O)CCC(=O)O
LEL [1]: 200 mg/kg/day
LOAEL [1]: 200 mg/kg/day
NEL [1]: 30 mg/kg/day
NOAEL [1]: 30 mg/kg/day
LEL [2]: 500 mg/kg/day
LOAEL [2]: > 1500 mg/kg/day
NEL [2]: < 500 mg/kg/day
NOAEL [2]: ≥ 1500 mg/kg/day
LEL [3, 14]: 1000 mg/kg/day
LOAEL [3, 14]: 1000 mg/kg/day
NEL [3, 14]: 200 mg/kg/day
NOAEL [3, 14]: 200 mg/kg/day
LEL [3, 15]: 1000 mg/kg/day
LOAEL [3, 15]: 1000 mg/kg/day
NEL [3, 15]: 200 mg/kg/day
NOAEL [3, 15]: 200 mg/kg/day
LEL [4, 16]: 1000 mg/kg/day
LOAEL [4, 16]: 1000 mg/kg/day
NEL [4, 16]: 500 mg/kg/day
NOAEL [4, 16]: 500 mg/kg/day
LEL [4, 17]: 1000 mg/kg/day
LOAEL [4, 17]: 1000 mg/kg/day
NEL [4, 17]: 500 mg/kg/day
NOAEL [4, 17]: 500 mg/kg/day

CN=C1CN(O)C(c2ccccc2)=c2cc(Cl)ccc2=N1 [Chlordiazepoxide]
LEL [5]: 1 mg/kg/day
LOAEL [5]: > 1 mg/kg/day
NEL [5]: < 1 mg/kg/day
NOAEL [5]: ≥ 1 mg/kg/day

N#Cc1nn(-c2c(Cl)cc(C(F)(F)F)cc2Cl)c(N)c1S(=O)C(F)(F)F (centres undefined) [Fipronil]
LOAEL ([6]; group: developmental, developmental / developmental malformation / bone / incomplete ossification): 2.5 mg/kg/day
LEL [6, 18]: 2.5 mg/kg/day
NEL [6, 18]: 1 mg/kg/day
NOAEL [6, 18]: 1 mg/kg/day
LEL [6, 19]: 2.5 mg/kg/day
LOAEL [6, 19]: 2.5 mg/kg/day
NEL [6, 19]: 1 mg/kg/day
NOAEL [6, 19]: 1 mg/kg/day
LOAEL ([7]; systemic / in life observation / body weight / body weight gain): 3.2 mg/kg/day
NOAEL ([7]; systemic / in life observation / body weight / body weight gain + systemic / organ weight / liver / absolute + systemic / organ weight / …): 1.27 mg/kg/day
LEL [7, 20]: 0.13 mg/kg/day
NEL [7, 20]: < 0.13 mg/kg/day
LEL [8, 21]: 2 mg/kg/day
LOAEL [8, 21]: 2 mg/kg/day
NEL [8, 22]: 0.5 mg/kg/day
NOAEL [8, 22]: 0.5 mg/kg/day
LOAEL ([9]; systemic / clinical chemistry / protein / protein): 1.93 mg/kg/day
NOAEL ([9]; systemic / clinical chemistry / protein / protein + systemic / clinical chemistry / albumin-globulin ratio / albumin-globulin ratio + …): 0.33 mg/kg/day
LEL [9, 23]: 0.07 mg/kg/day
NEL [9, 23]: < 0.07 mg/kg/day
LEL ([10]; systemic / organ weight / liver / relative to body weight): 0.055 mg/kg/day
LOAEL [10, 24]: 1.18 mg/kg/day
NEL [10, 24]: 0.011 mg/kg/day
NOAEL [10, 24]: 0.055 mg/kg/day
LEL [11]: 2 mg/kg/day
LOAEL [11]: 2 mg/kg/day
NEL [11]: 0.2 mg/kg/day
NOAEL [11]: 0.2 mg/kg/day
LOAEL [12, 25]: 0.059 mg/kg/day
NOAEL [12, 25]: 0.019 mg/kg/day
LEL [12, 26]: 0.019 mg/kg/day
NEL [12, 26]: < 0.019 mg/kg/day
LEL [13]: 0.32 mg/kg/day
LOAEL [13]: 0.32 mg/kg/day
NEL [13]: 0.08 mg/kg/day
NOAEL [13]: 0.08 mg/kg/day
